One series deals with ECS-induced amnesia. The series can be described thus: Electroconvulsive shock (ECS)-induced amnesia, mouse passive avoidance task. In kind it is in vivo. As for the experimental part: Electricity Chorea Shock (ECS)-Induced Learning Disorder (Mouse Passive Evasion Reaction Test) The evaluation was carried out in the following manner with reference to a report (Eur. J. Pharmacology, 321; 273-278, 1997). Animals; Male ddy mice (SLC, five weeks of age at the time of the training) were used. Arranged into 31 or 32 animals per group. A compound to be evaluated was suspended in a solution prepared by dissolving methyl cellulose in physiological saline to a concentration of 0.5% (hereinafter, 0.5% methyl cellulose solution). The administration volume was set to 10 ml per 1 kg body weight. As a placebo of the compound to be evaluated, 10 ml of the 0.5% methyl cellulose solution per 1 kg body weight (hereinafter, vehicle) was administered. (2) Each mouse was put into the light compartment of a passive avoidance task apparatus and allowed to stand for 30 seconds. Thereafter, the Guillotine door was opened. […] (3) A period of time until the mouse crossed a sensor in the dark compartment after opening the Guillotine door (step-through latency) was recorded. […] Effect of the compound on ECS-induced amnesia was evaluated by comparison between a step-through latency of (ECS+vehicle administration) group and a that of (ECS+evaluation compound administration) group. Data were analyzed using two-tailed steel test. […]

The next series addresses T1, BEC 1 potassium channel (Homo sapiens, UniProt Q9ULD8).
T1 construct: expressed in transfected cells
T1 sequence (Q9ULD8 1-1083): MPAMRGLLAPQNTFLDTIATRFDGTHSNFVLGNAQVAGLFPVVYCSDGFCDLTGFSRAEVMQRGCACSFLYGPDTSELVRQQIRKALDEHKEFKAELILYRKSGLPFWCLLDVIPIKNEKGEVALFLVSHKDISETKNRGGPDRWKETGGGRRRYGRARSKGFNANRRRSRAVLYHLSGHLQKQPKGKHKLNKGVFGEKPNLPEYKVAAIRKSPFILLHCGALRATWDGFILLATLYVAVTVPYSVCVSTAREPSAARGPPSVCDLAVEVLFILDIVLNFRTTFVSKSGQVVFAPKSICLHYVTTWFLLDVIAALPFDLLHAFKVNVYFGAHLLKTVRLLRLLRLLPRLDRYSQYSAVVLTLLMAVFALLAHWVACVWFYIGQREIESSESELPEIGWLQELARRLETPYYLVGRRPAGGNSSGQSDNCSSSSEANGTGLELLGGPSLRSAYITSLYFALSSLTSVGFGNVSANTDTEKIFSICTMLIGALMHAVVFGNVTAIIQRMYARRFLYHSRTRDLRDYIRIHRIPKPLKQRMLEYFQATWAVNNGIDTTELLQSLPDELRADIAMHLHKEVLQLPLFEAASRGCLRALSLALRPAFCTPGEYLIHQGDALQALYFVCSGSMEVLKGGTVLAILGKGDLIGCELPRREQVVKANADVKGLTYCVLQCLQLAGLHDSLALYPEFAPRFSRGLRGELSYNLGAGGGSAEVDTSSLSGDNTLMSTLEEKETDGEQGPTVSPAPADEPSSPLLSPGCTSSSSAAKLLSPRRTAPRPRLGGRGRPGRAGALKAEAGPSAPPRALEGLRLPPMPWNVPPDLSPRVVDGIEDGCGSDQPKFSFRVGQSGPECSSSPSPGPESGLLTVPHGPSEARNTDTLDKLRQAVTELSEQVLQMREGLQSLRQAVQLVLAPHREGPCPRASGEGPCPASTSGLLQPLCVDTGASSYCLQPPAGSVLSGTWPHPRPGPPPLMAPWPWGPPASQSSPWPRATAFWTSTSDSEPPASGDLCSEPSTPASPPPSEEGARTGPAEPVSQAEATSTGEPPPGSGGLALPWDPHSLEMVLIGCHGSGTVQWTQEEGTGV
The series can be described thus: BEC 1 inhibitory activity using released amount of 86Rb ions from BEC 1-expressing cells. In kind it is cell-based. The following applies: 86Rb ion release, BEC 1-stably expressing CHO (dhfr-deficient) cell, 100 mM KCl stimulation; read-out: BEC1 IC50. As for the experimental part:
In general, the potassium channel can pass Rb^+ ion similar to K^+ ion, so that the channel activity can be measured using release of a radioisotope ^86Rb^+ as a marker. By incubating cells expressing the novel potassium channel protein together with ^86RbCl (e.g., 18 hr, 37° C.), ^86Rb^+ can be incorporated into the cells. The cells are washed with a low K^+ concentration physiological saline (e.g., 4.5 mM K^+) and then suspended in the same solution. When a high K^+ concentration solution (e.g., 100 mM in final concentration) is added to the cell suspension, membrane potential of the cell is depolarized and the potassium channel therefore is activated. As a result, the intracellular ^86Rb^+ is released into the extracellular part, thus radioactivity of the extracellular solution can be used as a marker of the channel activity. It is possible to screen a compound and a peptide capable of modifying activity of the BEC 1 potassium channel protein, by comparing the radioactivity released into the extracellular part when the high K^+ concentration solution is added in the presence and absence of each drug to be tested.
Method for Measuring BEC 1 Inhibitory Activity of Compounds Using Released Amount of ^86Rb ions as the Index
The channel activity of BEC 1 was measured in accordance with the method described in WO 99/37677, using amount of a radioisotope ^86Rb ion released from a BEC 1-expressing cell as the index. That is, when an ^86Rb ion-incorporated BEC 1-expressing cell was stimulated with 100 mM KCl, the radioactivity released from the cell was used as the channel activity of BEC 1. The ^86Rb ions were incorporated into a BEC 1-stably expressing cell by culturing the cell (3 hours, 37° C.) in the presence of ^86RbCl (0.5 μCi/ml), and the un-incorporated ^86Rb ions were removed by washing three times with HEPES-buffered saline (pH 7.4, 2.5 mM KCl). The cells were incubated with HEPES-buffered saline containing a compound to be tested at room temperature for 15 minutes and then further incubated with 100 mM KCl-containing HEPES-buffered saline (pH 7.4) containing the compound to be tested at room temperature for 5 minutes. The extracellular medium was recovered, and then the remaining cells were lysed with 0.1 N NaOH and recovered.
The Cerenkov radioactivity of the extracellular medium and cell lysate was respectively measured, and their total was used as the total radioactivity. The released amount of ^86Rb ions was expressed by the percentage of extracellular medium radioactivity based on the total radioactivity. The value obtained in the presence of the compound was used as a test value, and the value obtained in the absence of the compound as a control value and the value obtained when not stimulated with 100 mM KCl as a blank value. Inhibitory action of each compound was expressed by % inhibition, namely (control value−test value)×100/(control value−blank value), or by an IC50 value calculated from the % inhibition. As the test results of typical compounds are shown in the following Tables 2 and 3, it was confirmed that said compounds have the BEC 1 potassium channel inhibitory action.
In this connection, as the BEC 1-expressing cell, a BEC 1-stably expressing cell prepared in accordance with the method described in WO 99/37677 using a dihydrofolate reductase (dhfr)-deficient strain of a Chinese hamster ovary cell was used.

In the case of `Fc1ccc(Nc2nc(NCc3ccnc(F)c3)nc(Nc3ccccc3)n2)cc1` [Example 744], the “minimum effective dose (step-through latency)” value in the series with ECS-induced amnesia (intraperitoneally administered, male ddy mice, test 24 hours after training) amounted to 3 mg/kg. Further, the “effect on ECS-induced amnesia” value in the series with ECS-induced amnesia (mouse passive avoidance task) is “shows the improving effect”. Besides, the half-inhibitory concentration (IC50) (usually the concentration that inhibits the measured activity by half) on BEC 1 potassium channel was 85 nM.

Turning to `COCCNc1nc(Nc2ccccc2)nc(Nc2ccccc2)n1` [compound 17], the melting point (commonly the temperature of the solid-liquid transition) was in the range of 128 to 129 °C. The IC50 at BEC 1 potassium channel is 290 nM.

On to `OCCCCCNc1nc(Nc2ccccc2)nc(Nc2ccccc2)n1` [compound 22], for which the melting point lay within 118 to 119 °C. Besides, the IC50 on BEC 1 potassium channel turned out to be 190 nM.

With `CC(C)Nc1nc(Nc2ccccc2)nc(Nc2ccc(F)cc2)n1.Cl` [compound 45, N-(4-fluorophenyl)-N′-isopropyl-N″-phenyl-1,3,5-triazine-2,4,6-triamine hydrochloride], the melting point is 205 to 206 °C. In addition, the half-inhibitory concentration (IC50) on BEC 1 potassium channel was determined as 220 nM.

The record behind these values is patent US7375222B2, “2,4,6-Triamino-1,3,5-triazine derivative” (Astellas Pharma Inc., priority 2002, dated 2008).
